Measurements taken from patent US8821927B2, “Pharmaceutical composition” (SmithKline Beecham (Cork) Limited, priority 2005, dated 2014).

Experiment: solubility in aqueous media
Type: physicochemical
Details: over the physiologically relevant pH range
Description: Of particular interest is N-{3-Chloro-4-[(3-fluorobenzyl)oxy]phenyl}-6-[5-({[2-(methanesulphonyl)ethyl]amino}methyl)-2-furyl]-4-quinazolinamine ditosylate monohydrate.

solubility in aqueous media: poorly soluble
SMILES: CS(=O)(=O)CCNCc1ccc(-c2ccc3ncnc(Nc4ccc(OCc5cccc(F)c5)c(Cl)c4)c3c2)o1 [GW572016, N-{3-Chloro-4-[(3-fluorobenzyl)oxy]phenyl}-6-[5-({[2-(methanesulphonyl)ethyl]amino}methyl)-2-furyl]-4-quinazolinamine]
